According to patent US9125898B2, “Acetam derivatives for pain relief” (NEUROTUNE AG, priority 2008, dated 2015):
“Also recorded” adds a separate entry of the source.

Experiments:
[1] = system: ddC induced mechanical allodynia in rats; experiment: ddC induced mechanical allodynia in rats, von Frey test; assay type: in vivo, rat; details: for Reversal of ddC-induced neuropathy (mechanical threshold, von Frey): FIG. 4, 15 min after drug administration
Experimental: Painful peripheral NP may be induced in rats by i.v. administration of 2′,3′-dideoxycytidine (ddC) mimicking what is seen in AIDS patients undergoing antiviral therapy. The ddC test represents a useful and predictive model to study molecules with analgesic potential in human neuropathic states.
Adult male SD rats (Harlan, Italy, 150-200 g weight) were used. Animals were treated with 25 mg/kg i.v. bolus of 2′,3′-dideoxycytidine, an inhibitor of nucleoside reverse transcriptase used for AIDS therapy that in rodents induces a peripheral neuropathy resulting in allodynic responses to mechanical stimuli. Symptoms severity peaks between 5 to 10 days after administration (Joseph, E. K. et al. —Pain 107 (2004) 147-158). Ten days after administration of ddC, as an intravenous (i.v.) bolus, test substances were administered every day, once a day or b.i.d for 4 weeks. Dosing was withheld in those days in which allodynic tests were performed, and lasted for 24 h and 48 h.
NT-11624 was dissolved in distilled water and was orally by gavage administered as follows • Group 1: 100 mg/kg b.i.d. for 14 days, followed by 50 mg/kg b.i.d. for 7 days, then 50 mg/kg u.i.d. for 7 days. • Group 2: 50 mg/kg b.i.d. for 28 days.
Pregabalin (3B Pharmachem (Wuhan) International Co.) was dissolved in 1% CMC (carboxymethylcellulose) and orally administered at the dose of 15 mg/kg b.i.d. for 28 days.
Thresholds for mechanical allodynia were measured using an electronic Von Frey apparatus. […] After 4 week drug administration, additional tests were performed beyond the 60 min point, at 4, 8, 24, 48 and 56 h. Results represent the mean (±S.E.M.) of mechanical thresholds expressed in grams.
Drugs: The following substance was used: NT-11624 (batch No. 0000104580 supplied by Brane Discovery Srl, Gerenzano Italy). NT-11624 was dissolved in distilled water and given p.o. every day, except in those days in which allodynic tests were performed and lasted for 24 h, 48 h and 56 h (i.e. days 1, 3, 7, 10, 14, 21, 28).
The following groups of treatment were utilized: • NT-11624 (Group 1): rats received 100 mg/kg b.i.d. of NT-11624 for 14 days, then 50 mg/kg b.i.d. for 7 days, then 50 mg/kg u.i.d. for 7 days. • NT-11624 (Group 2): rats received 50 mg/kg b.i.d. for 28 days • Pregabalin: rats received 15 mg/kg b.i.d. for 28 days
Administration volume was 10 ml/kg body weight. Pregabalin [3B Pharmachem (Wuhan), International Co] was dissolved in CMC 1% (carboxymethylcellulose, Sigma-Aldrich, Italy), and orally given as described before. Control rats received vehicle only.
ddC intravenous injection: ddC was dissolved in saline to a concentration of 25 mg/kg (1 ml) and was administered i.v. into the rat tail vein. Control rats were treated with an equal volume of saline i.v.
The administration of ddC produces dose-dependent mechanical hypersensitivity and allodynia peaking in severity between 5-10 days after the administration. The test is usually performed at day 10.
Von Frey test: Each animal was placed in a chamber with a mesh metal floor covered by a plastic dome that enabled the animal to walk freely, but not to jump. The mechanical stimulus was then delivered in the mid-plantar skin of left hind paw using an electronic Von Frey apparatus (37400 Dynamic Plantar Aesthesiometer; Ugo Basile, Comerio, Varese, Italy). The cut-off was fixed at 50 g, while the increasing force rate (ramp duration) was settled at 20 sec. […] At day 28, additional tests were performed at 4, 8, 24, 48 and 56 h after drug administration. Results represent the mean (±S.E.M.) of mechanical thresholds expressed as grams.

[2] = system: MIA induced hyperalgesia in the rat; experiment: MIA induced hyperalgesia in the rat (paw-pressure test); assay type: in vivo; details: for Mechanical threshold, before treatment, first day basal: baseline
Text: Peripheral neuropathic induced in rats by administration into the left knee joint of MIA mimics chronic pain condition of osteoarthritis found in a large part of population over 60 years. The MIA test represents an useful and predictive model to study the anti-hyperalgesic potential of a drug in human osteoarthritic condition.
Drugs: The following substances were used: NT-11624 (batch n 66-MM3/16 supplied by Brane Discovery Sri, Gerenzano Italy) and tramadol (Tocris, UK). […] Control rats received saline only.
Sodium monoiodoacetate injection: A single intra-articular injection of sodium iodoacetate (MIA) was introduced into the right knee joint. […] Briefly, rats were deeply anaesthetized by ethylic ether. Following abolition of the hindpaw pinch withdrawal reflex, a 27-gauge needle was introduced into the joint cavity between the tibial plateau and femoral condyles. Once in place, 2 mg of MIA were solubilized in a volume of 25 ul and injected into the joint and the animal was allowed to recover for 14 days prior to pain assessment. It has consistently been shown that this dose of MIA causes osteoarthritic-like focal lesions in articular cartilage and subchondral bone thickening 14 days after administration Guingamp C. et al. Arthritis Rheum 40, 1670-9 (1997). Therefore this model can easily and quickly reproduce osteoarthritic-like lesions and functional impairment in rats, similar to that observed in human disease.
The administration of MIA induces in rats a hyperalgesic response to mechanical stimuli that reaches its statistical significance 5 days after administration and persists for 4 weeks (Fernihough et al. Pain 112:83-93 (2004)).
Control rats were treated with an equal volume of saline. […]
Starting from day 17 after MIA injection, paw pressure tests were performed.
Mechanical hyperalgesia: Paw mechanical sensitivity was determined using a Randall & Selitto apparatus exerting a force that increases at constant rate (32 g/s). The stimulus at which rats withdrawn the paw was evaluated before treatment (First day basal) and at the end of the treatment as following: before last treatment (pre-dose), and after last treatment (15, 30, 45, 60 min, 24, 48 and 72 h).
Results represent the mean of mechanical thresholds expressed as grams. To avoid any possible damage to the animal paw the maximum applied force was fixed at 240 g.

[3] = Group 1 down-titration schedule, p.o.
[4] = Group 2: 50 mg/kg b.i.d. p.o. for 28 days, 50 mg/kg
[5] = MIA rats, 14 days b.i.d. p.o. (NT-11624 150 mg/kg, tramadol 40 mg/kg)
[6] = MIA rats, 14 days b.i.d. p.o., NT-11624 150 mg/kg
[7] = MIA rats, single p.o. administration on saline b.i.d. (NT-11624 150 mg/kg, tramadol 40 mg/kg)
[8] = 15 mg/kg b.i.d. p.o. for 28 days

SMILES: O=C1CN2C(=O)CCC2N1 (centres unmarked) [NT-11624, 2,5-dioxohexahydro-1H-pyrrolo[1,2-a]imidazole]
- Reversal of ddC-induced neuropathy (mechanical threshold, von Frey) [1]: fully reverts
- Onset of anti-allodynic effect ([1]; Group 1: 100 mg/kg b.i.d. 14 days, then 50 mg/kg b.i.d. 7 days, then 50 mg/kg u.i.d. 7 days, p.o.): starting from the third day; also recorded: as of day 3
- Anti-allodynic effect 56 h from the last administration [1, 3]: still significant protection; also recorded: robust effect
- Anti-allodynic effect at day 14 [1, 3]: complete protection
- Anti-allodynic effect up to 48 h from the last administration (day 28) [1, 3]: full reversal of allodynia
- Effect up to 24 h after the last administration ([1]; Group 2: 50 mg/kg b.i.d. p.o. for 28 days): clearly evident
- Effect 48 h after the last administration [1, 4]: still significant; also recorded: still evident
- Onset of anti-pain response [1, 4]: starting from day 10; also recorded: as of day 10
- Anti-hyperalgesic effect 15 min until 48 h after last dosing ([2]; 150 mg/kg b.i.d. oral, 2 weeks): lasted throughout the experiment
- Paw pressure hyperalgesic response at the pre last administration test ([2]; 75 and 150 mg/kg b.i.d. oral, 2 weeks, 13 h after the evening administration of the previous day): significant reduction of the hyperalgesia
- Mechanical threshold, after last treatment 15 min [2, 5]: 72.6 ± 4.1 g
- Mechanical threshold, after last treatment 30 min [2, 5]: 75.0 ± 2.2 g
- Mechanical threshold, after last treatment 45 min [2, 5]: 70.5 ± 2.7 g
- Mechanical threshold, before last treatment, pre-dose [2, 5]: 65.1 ± 2.5 g
- Mechanical threshold, after last treatment 60 min [2, 6]: 60.6 ± 4.2 g
- Mechanical threshold, after last treatment 24 h [2, 6]: 55.3 ± 4.8 g
- Mechanical threshold, after last treatment 48 h [2, 6]: 43.9 ± 4.0 g
- Mechanical threshold, after last treatment 72 h ([2]; MIA rats, 14 days b.i.d. p.o., NT-11624 150 mg/kg, mean of 4 rats): 34.8 ± 3.7 g
- Mechanical threshold, before treatment, first day basal ([2]; MIA rats, groups later treated 14 days b.i.d. p.o. (NT-11624 150 mg/kg, tramadol 40 mg/kg)): 63.5 ± 3.2 g
- Mechanical threshold, before treatment, first day basal ([2]; MIA rats, single administration groups (saline 14 days b.i.d. first)): 60.4 ± 2.7 g
- Mechanical threshold, before last treatment, pre-dose ([2]; MIA rats, single administration on saline b.i.d., before the single p.o. dose (NT-11624 150 mg/kg, tramadol 40 mg/kg)): 23.9 ± 3.5 g
- Mechanical threshold, after last treatment 15 min [2, 7]: 33.8 ± 3.1 g
- Mechanical threshold, after last treatment 30 min [2, 7]: 39.3 ± 2.8 g
- Mechanical threshold, after last treatment 45 min [2, 7]: 26.2 ± 3.1 g
- Antihyperalgesic activity at 48 h after the last treatment ([2]; NT-11624 150 mg/kg p.o., 14 days b.i.d.): statistically significant activity
- Duration of beneficial effect after last dosing ([2]; after a 2 week oral b.i.d. treatment): at least 48 h
- Effect of a single oral dose on mechanical threshold (in words) ([2]; single oral dose after saline b.i.d. for 14 days (NT-11624 150 mg/kg, tramadol 40 mg/kg)): significant increase of mechanical threshold only at 30 min
- Antihyperalgesic activity after the last treatment (in words) ([2]; treatment for 14 days b.i.d. p.o. (NT-11624 150 mg/kg, tramadol 40 mg/kg)): completely protects from MIA-induced hyperalgesia up to 24 h

SMILES: CC(C)C[C@H](CN)CC(=O)O [Pregabalin, reference compound]
- Onset of effect on allodynic threshold ([1]; 15 mg p.o. b.i.d.): modest but significant effect already from day 1
- Day of peak effect [1, 8]: 14 days
- Effect of the last administration on day 28 [1, 8]: moderate beneficial effect that disappeared after 8 h

SMILES: CC[C@@H](C(N)=O)N1CCCC1=O [levetiracetam, reference compound]
- Reversal of ddC-induced neuropathy (mechanical threshold, von Frey) [1]: not
